This note sets out measurements from patent US6855667B2, “Method for safening crops from the phytotoxic effects of herbicides by use of phosphorated esters” (priority 2000, dated 2005).

What all share (assay type): in vivo
One experiment has as its system corn (Pioneer 3733). Kind of experiment: Clomazone injury and dietholate safening of corn, variety Pioneer 3733. To be noted: 14 days. On the procedure:
(§1) The compounds and compositions of the present invention were tested as water/surfactant solutions on two corn varieties (Pioneer 3733 and Pioneer 3876) and one variety (DPL 61) of cotton. In one embodiment, the safening compound and herbicidal compound were sprayed in admixture as a tank mix onto flats of corn or cotton seeds arranged in a randomized, block design. In another embodiment, the safening compound was applied to the plant seeds by placing the safening compound and the plant seeds in a screw-capped jar, which was rolled on its side until dispersion of the safening compound was complete. Optionally, a sticker compound, for example, without limitation, water or carboxymethylcellulose, can be used to adhere the safening compound to the plant seeds. The treated plant seeds were planted and immediately sprayed with herbicidal compound as described hereinabove. There were four replicates for each rate of application. The emerging corn and cotton plants were maintained in a growth chamber for 14 days after which time they were evaluated for percent injury as compared to an untreated control.

The next experiment relates to cotton (DPL 61). Nature of the experiment: Clomazone injury and dietholate safening of cotton, growth chamber, percent injury vs untreated control. The settings on record: for Percent Injury: 14 days. On the procedure: as §1
The test system of a further experiment is corn (Pioneer 3876). Nature of the experiment: Clomazone injury and dietholate safening of corn, variety Pioneer 3876. To be noted: 14 days. The protocol:
as §1

For experiment [1], the system named is two corn varieties (Pioneer 3733 and Pioneer 3876). Nature of the experiment: Clomazone injury and dietholate safening of corn, both varieties together. To be noted: clomazone without the safening compound dietholate. The protocol: as §1, with “control. […]” for “control.”

Turning to `CC1(C)CON(Cc2ccccc2Cl)C1=O` [Clomazone, 2-[(2-chlorophenyl)methyl]-4,4-dimethyl-3-isoxazolidinone], the “Percent Injury” value in the experiment with corn (Pioneer 3733) (clomazone 0.06 kg/ha alone) is 2%; in the experiment on corn (Pioneer 3733) (clomazone 0.12 kg/ha alone), 28%; in the experiment on corn (Pioneer 3733) (clomazone 0.24 kg/ha alone), 75%; in the experiment on cotton (DPL 61) (clomazone 0.25 kg/ha alone) it was 46%; in the experiment on cotton (DPL 61) (clomazone 0.50 kg/ha alone) it was 77%; with cotton (DPL 61) (clomazone 1.0 kg/ha alone), 91%. Further, the “Percent Injury” value in the experiment with corn (Pioneer 3876) (clomazone 0.06 kg/ha alone) was found to be 1%; in the experiment on corn (Pioneer 3876) (clomazone 0.12 kg/ha alone) it was 15%; with corn (Pioneer 3876) (clomazone 0.24 kg/ha alone) it was 59%. For the same molecule, the “injury to cotton (in words)” value with cotton (DPL 61) (clomazone without the safening compound dietholate) is “significant injury”. For the same molecule, the “injury to corn (in words)” value in experiment [1] was “significant injury”.
